Measurements from patent US10206904B2, “Licofelone derivatives and methods of use” (The Board of Regents of the University of Oklahoma, priority 2015, dated 2019).
“Also recorded” adds a separate entry of the source. Read-outs that look alike come from different tables or passages of the source.

Conditions: for Major Organ Toxicity / Liver enzymes ALKP / Liver enzymes ALT / Liver enzymes AST / Liver enzymes LDH / Ulceration (Grade) Colon / Ulceration (Grade) Small Intestine / Ulceration (Grade) Stomach: 6 weeks, male C57 mice; for Liver enzymes ALKP / Liver enzymes ALT / Liver enzymes AST / Liver enzymes LDH: Mean ± SEM
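Note: gross examination of all organs at necropsy, with liver enzyme profile and GI ulceration assessed in collected tissues and blood.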

Experimental: Body weights and symptoms of toxicity were recorded twice weekly for 6 weeks. […] All organs were examined grossly for any abnormalities upon necropsy. Livers, kidney, stomach, intestinal tract, and blood were obtained from the animals and analyzed for Liver enzyme profile, GI ulceration, and levels of test agents.
All animals found dead will be necropsied to confirm that the most likely cause of death was due to intestinal ulcerations.

CCCCCCC(Sc1nc(Cl)cc(Nc2cccc(C)c2C)n1)C(=O)O (stereo not shown) [YS-121, reference compound]
Major Organ Toxicity (25 ppm in diet): None | Liver enzymes ALKP (25 ppm in diet): 183 ± 24 units/L | Liver enzymes ALT (25 ppm in diet): 81 ± 11 units/L | Liver enzymes AST (25 ppm in diet): 77 ± 8.6 units/L | Liver enzymes LDH (25 ppm in diet): 388 ± 29 units/L | Major Organ Toxicity (50 ppm in diet): None | Liver enzymes ALKP (50 ppm in diet): 198 ± 33 units/L | Liver enzymes ALT (50 ppm in diet): 96 ± 14 units/L | Liver enzymes AST (50 ppm in diet): 90 ± 7.8 units/L | Liver enzymes LDH (50 ppm in diet): 451 ± 38 units/L | toxicity (75 ppm and above dose levels in diet, mice): significant toxicity | Major Organ Toxicity (75 ppm in diet): Liver | Liver enzymes ALKP (75 ppm in diet): 358 ± 47 units/L | Liver enzymes ALT (75 ppm in diet): 147 ± 17 units/L | Liver enzymes AST (75 ppm in diet): 118 ± 18 units/L | Liver enzymes LDH (75 ppm in diet): 540 ± 51 units/L | Major Organ Toxicity (100 ppm in diet): Liver* | Ulceration (Grade) Colon (100 ppm in diet): Grade: 0, 1 | Ulceration (Grade) Small Intestine (100 ppm in diet): Grade: 1 | Ulceration (Grade) Stomach (100 ppm in diet): Grade: 2-3 | Liver enzymes ALKP (100 ppm in diet): 477 ± 51 units/L | Liver enzymes ALT (100 ppm in diet): 194 ± 23 units/L | Liver enzymes AST (100 ppm in diet): 169 ± 29 units/L | Liver enzymes LDH (100 ppm in diet): 883 ± 68 units/L | Major Organ Toxicity (200 ppm in diet): Liver**; also recorded: Stomach | Ulceration (Grade) Colon (200 ppm in diet): Grade: 2 | Ulceration (Grade) Small Intestine (200 ppm in diet): Grade: 4 | Ulceration (Grade) Stomach (200 ppm in diet): Grade: 5
